Legend:
Type in all cases: cell-based
hP2X4 = biological target: T1, hP2X4 (Homo sapiens, UniProt Q99571); assay: TEVC inhibition dose-response (IC50), hP2X4 in Xenopus laevis oocytes; settings: 50 μM ATP, mean ± SD, triplicate
T1 sequence (Q99571 1-388): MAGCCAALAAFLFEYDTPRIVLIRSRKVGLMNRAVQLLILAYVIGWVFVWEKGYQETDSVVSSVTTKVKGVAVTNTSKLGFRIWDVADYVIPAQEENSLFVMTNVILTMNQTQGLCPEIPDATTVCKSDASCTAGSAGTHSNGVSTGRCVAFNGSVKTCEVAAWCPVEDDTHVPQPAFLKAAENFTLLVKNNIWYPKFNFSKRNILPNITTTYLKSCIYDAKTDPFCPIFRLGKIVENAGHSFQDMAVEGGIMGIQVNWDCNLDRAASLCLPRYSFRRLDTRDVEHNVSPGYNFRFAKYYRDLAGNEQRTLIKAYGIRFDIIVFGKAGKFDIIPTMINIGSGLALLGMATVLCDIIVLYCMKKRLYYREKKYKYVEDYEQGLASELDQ
Excerpt: (§1) To evaluate the inhibitory response of an antagonist for a dilution series, an initial excitatory signal was evoked at a subtype-specific concentration of ATP. Next, the antagonist was applied at a test concentration for 60 s and then coapplied at the same test concentration of the antagonist with the identical subtype-specific concentration of ATP. The antagonized signal was then normalized against the preceding excitatory signal evoked by ATP for each individual oocyte tested. The pre- and post-antagonist signals were evoked by 10 μM ATP for hP2X1, 10 μM ATP for hP2X2, 1 μM ATP for hP2X3, 50 μM ATP for hP2X4, and 100 μM ATP for P2X7. For the K297V mutation in rP2X7, pre- and post-antagonist signals were evoked by 300 μM ATP. Each dataset was then fit to a nonlinear regression named “[inhibitor] vs. response – Variable slope (four parameters)” in GraphPad Prism 9 to produce a sigmoidal curve and afford an IC50 value. Each singular condition was used to generate an average which is reported plus or minus its SD between three discrete trials.

hP2X1 = biological target: T2, hP2X1 (Homo sapiens, UniProt P51575); assay: TEVC inhibition dose-response (IC50), hP2X1 in Xenopus laevis oocytes; settings: 10 μM ATP, mean ± SD, triplicate
T2 construct: The hP2X1-WT, hP2X2-WT, hP2X3-WT, hP2X4-WT, and hP2X7-WT constructs used for electrophysiology are similarly unmodified full-length, wild-type receptor constructs; expressed in transfected cells; host or cells: Xenopus laevis oocytes injected with mRNA made from pcDNA3.1x
T2 sequence (P51575 1-399): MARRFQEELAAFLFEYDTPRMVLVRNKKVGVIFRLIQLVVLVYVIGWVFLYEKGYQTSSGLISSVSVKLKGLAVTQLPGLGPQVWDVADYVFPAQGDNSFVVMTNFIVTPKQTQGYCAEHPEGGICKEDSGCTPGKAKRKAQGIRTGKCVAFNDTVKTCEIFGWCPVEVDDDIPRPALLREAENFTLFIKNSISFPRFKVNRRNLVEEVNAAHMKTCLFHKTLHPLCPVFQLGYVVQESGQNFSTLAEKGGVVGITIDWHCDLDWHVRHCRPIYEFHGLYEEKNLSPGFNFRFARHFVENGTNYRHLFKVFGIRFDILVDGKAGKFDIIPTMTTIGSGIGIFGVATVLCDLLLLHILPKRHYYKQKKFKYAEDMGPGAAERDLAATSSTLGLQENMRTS
Excerpt: as §1

hP2X7 [1] = biological target: T3, hP2X7 (Homo sapiens, UniProt Q99572); assay: TEVC recovery of current after complete inhibition (IC100), hP2X7; set-up: hP2X7-WT constructs used for electrophysiology are similarly unmodified full-length, wild-type receptor constructs; expressed in transfected cells; host or cells: Xenopus laevis oocytes injected with mRNA made from pcDNA3.1x; settings: 120 s buffer wash, 100 μM ATP
T3 sequence (Q99572 1-595): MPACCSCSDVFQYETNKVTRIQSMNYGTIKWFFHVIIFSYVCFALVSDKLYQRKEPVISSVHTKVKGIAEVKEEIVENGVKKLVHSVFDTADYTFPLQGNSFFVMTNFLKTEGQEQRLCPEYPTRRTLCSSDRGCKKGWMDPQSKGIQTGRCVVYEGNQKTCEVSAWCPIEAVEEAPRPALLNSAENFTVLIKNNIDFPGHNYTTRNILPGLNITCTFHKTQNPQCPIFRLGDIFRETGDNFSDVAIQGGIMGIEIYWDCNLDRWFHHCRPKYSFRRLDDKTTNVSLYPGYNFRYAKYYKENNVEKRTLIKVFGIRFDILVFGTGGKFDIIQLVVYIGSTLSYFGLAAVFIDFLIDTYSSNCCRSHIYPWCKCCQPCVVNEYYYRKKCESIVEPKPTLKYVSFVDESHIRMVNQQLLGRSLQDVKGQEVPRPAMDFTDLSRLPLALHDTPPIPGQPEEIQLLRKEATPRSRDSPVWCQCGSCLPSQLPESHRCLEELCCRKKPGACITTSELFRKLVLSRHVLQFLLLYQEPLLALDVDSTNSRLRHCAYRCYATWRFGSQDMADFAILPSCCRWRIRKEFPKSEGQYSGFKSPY
Excerpt: Experiments were run in triplicate.

hP2X7 [2] = biological target: T3, hP2X7; assay: TEVC inhibition dose-response (IC50), hP2X7 in Xenopus laevis oocytes; set-up: hP2X4-WT, and hP2X7-WT constructs used for electrophysiology are similarly unmodified full-length, wild-type receptor constructs; expressed in transfected cells; host or cells: Xenopus laevis oocytes injected with mRNA made from pcDNA3.1x; settings: 100 μM ATP, mean ± SD, triplicate
Excerpt: as §1

Compound: O=S(=O)(O)c1ccc(N=C2C=CC(=C(c3ccc(Nc4ccc(S(=O)(=O)O)cc4)cc3)c3ccc(Nc4ccc(S(=O)(=O)O)cc4)cc3)C=C2)cc1 [methyl blue]
- IC50 (hP2X4): 51 ± 6 µM
- IC50 (hP2X1): 0.4 ± 0.1 µM
- Recovery of activation (% of baseline current) (hP2X7 [1]; hP2X7, 40-s IC100 application): 34 ± 3%
- Recovery of activation (% of baseline current) (hP2X7 [1]; hP2X7, 120-s IC100 application): 17 ± 6%
- Recovery of activation (% of baseline current) (hP2X7 [1]; hP2X7, 240-s IC100 application): 2 ± 1%
- IC50 (hP2X7 [2]): 4 ± 2 µM

From paper PMC11451537, “P2X7 receptors exhibit at least three modes of allosteric antagonism” (Science Advances, 2024)
